Measurements reported in the supplement of paper PMC11061612.

Experiments:
Assay in all cases: combination Emax (second highest fraction inhibited in the dose matrix, 72 h); higher = more inhibition; extreme values may be limits of the assay
[1] = test system: A172 (Glioblastoma)
How it was run: (§1)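 Bliss excess equals the observed combination effect minus the expected value EA + EB − EA·EB, where EA and EB are the effects of each agent alone. Combination Emax is the second-highest inhibition within the matrix. Inhibition was scaled from CellTiter-Glo 2.0 luminescence, with 0 set by vehicle wells and 1 by blank wells, after 72 hours of two-drug dosing of cells plated in 1536-well plates.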

[2] = test system: CS1 (Chondrosarcoma)
How it was run: as §1

[3] = test system: D-283MED (Other Solid Carcinomas)
How it was run: as §1

[4] = test system: DOK (Oral Cavity Carcinoma)
How it was run: as §1

[5] = test system: EKVX (Non-Small Cell Lung Carcinoma)
How it was run: as §1

[6] = test system: ETK-1 (Biliary Tract Carcinoma)
How it was run: as §1

[7] = test system: EW-22 (Ewing's Sarcoma)
How it was run: as §1

[8] = test system: H4 (Low Grade Glioma)
How it was run: as §1

[9] = test system: HCC-827 (Lung Adenocarcinoma)
How it was run: as §1

[10] = test system: HCC38 (Breast Carcinoma)
How it was run: as §1

[11] = test system: JHH-6 (Hepatocellular Carcinoma)
How it was run: as §1

[12] = test system: MCF7 (Breast Carcinoma)
How it was run: as §1

[13] = test system: MEG-01 (Chronic Myelogenous Leukemia)
How it was run: as §1

[14] = test system: SK-LMS-1 (Other Solid Carcinomas)
How it was run: as §1

[15] = test system: SK-MEL-1 (Melanoma)
How it was run: as §1

[16] = test system: SK-UT-1 (Other Solid Carcinomas)
How it was run: as §1

[17] = test system: SW48 (Colorectal Carcinoma)
How it was run: as §1

[18] = test system: TYK-nu (Ovarian Carcinoma)
How it was run: as §1

[19] = test system: WSU-DLCL2 (B-Cell Non-Hodgkin's Lymphoma)
How it was run: as §1

[20] = test system: SW948 (Colorectal Carcinoma)
How it was run: as §1

| SMILES | combination Emax [1] | combination Emax [2] | combination Emax [3] | combination Emax [4] | combination Emax [5] | combination Emax [6] | combination Emax [7] | combination Emax [8] | combination Emax [9] | combination Emax [10] | combination Emax [11] | combination Emax [12] | combination Emax [13] | combination Emax [14] | combination Emax [15] | combination Emax [16] | combination Emax [17] | combination Emax [18] | combination Emax [19] | combination Emax [20] |
| --- | --- | --- | --- | --- | --- | --- | --- | --- | --- | --- | --- | --- | --- | --- | --- | --- | --- | --- | --- | --- |
| CN(C)CCCOc1ccc(-c2ccc3ncc4c(c3c2)n(C2CCOCC2)c(=O)n4C)cn1 [AZD0156] + C=CCn1c(=O)c2cnc(Nc3ccc(N4CCN(C)CC4)cc3)nc2n1-c1cccc(C(C)(C)O)n1 [AZD1775] (first compound max 1 µM, partner max 1 µM) | 0.53 | 0.509 | 0.996 | 0.375 | 0.179 | 0.515 | 0.616 | 0.791 | 0.456 | 0.505 | 0.148 | 0.417 | 0.883 | 0.439 | 0.442 | 0.635 | 0.372 | 0.679 | 0.944 | – |
| CN(C)CCCOc1ccc(-c2ccc3ncc4c(c3c2)n(C2CCOCC2)c(=O)n4C)cn1 [AZD0156] + CCN(CCO)CCCOc1ccc2c(Nc3cc(CC(=O)Nc4cccc(F)c4)[nH]n3)ncnc2c1 [AZD2811] (first compound max 1 µM, 7x7, partner max 1 µM) | 0.499 | 0.301 | 0.769 | 0.334 | 0.0666 | 0.21 | 0.694 | 0.513 | 0.143 | 0.181 | 0.241 | 0.237 | 0.329 | 0.278 | 0.275 | 0.264 | 0.957 | 0.304 | 0.359 | – |
| CN(C)CCCOc1ccc(-c2ccc3ncc4c(c3c2)n(C2CCOCC2)c(=O)n4C)cn1 [AZD0156] + C[C@@H]1COCCN1C2=NC(=NC(=C2)C3(CC3)[S@](=N)(=O)C)C4=C5C=CNC5=NC=C4 [AZD6738] (first compound max 1 µM, 7x7, partner max 10 µM) | 0.717 | 0.674 | 1 | 0.264 | 0.234 | 0.632 | 0.905 | 0.826 | 0.495 | 0.558 | 0.337 | 0.837 | 0.912 | 0.525 | 0.442 | 0.806 | 0.779 | 0.713 | 0.977 | – |
| C=CCn1c(=O)c2cnc(Nc3ccc(N4CCN(C)CC4)cc3)nc2n1-c1cccc(C(C)(C)O)n1 [AZD1775] + C[C@@H]1COCCN1C2=NC(=NC(=C2)C3(CC3)[S@](=N)(=O)C)C4=C5C=CNC5=NC=C4 [AZD6738] (first compound max 1 µM, partner max 10 µM) | 0.81 | 0.766 | 1 | 0.545 | 0.327 | 0.665 | 0.902 | 0.994 | 0.609 | 0.712 | 0.553 | 0.73 | 0.935 | 0.704 | 0.55 | 0.906 | 0.886 | 0.732 | 1 | – |
| C=CCn1c(=O)c2cnc(Nc3ccc(N4CCN(C)CC4)cc3)nc2n1-c1cccc(C(C)(C)O)n1 [AZD1775] + O=C(c1cc(Cc2n[nH]c(=O)c3ccccc23)ccc1F)N1CCN(C(=O)C2CC2)CC1 [Olaparib] (first compound max 1 µM, partner max 10 µM) | 0.434 | 0.564 | 1 | 0.457 | 0.256 | 0.515 | 0.894 | 0.853 | 0.368 | 0.579 | 0.223 | 0.332 | 0.845 | 0.563 | 0.42 | 0.625 | 0.409 | 0.698 | 0.992 | – |
| CCN(CCO)CCCOc1ccc2c(Nc3cc(CC(=O)Nc4cccc(F)c4)[nH]n3)ncnc2c1 [AZD2811] + C=CCn1c(=O)c2cnc(Nc3ccc(N4CCN(C)CC4)cc3)nc2n1-c1cccc(C(C)(C)O)n1 [AZD1775] (first compound max 1 µM, partner max 1 µM) | 0.603 | 0.45 | 1 | 0.463 | 0.17 | 0.479 | 0.678 | 0.782 | 0.392 | 0.489 | 0.223 | 0.303 | 0.863 | 0.436 | 0.353 | 0.765 | 0.964 | 0.708 | 0.937 | – |
| CCN(CCO)CCCOc1ccc2c(Nc3cc(CC(=O)Nc4cccc(F)c4)[nH]n3)ncnc2c1 [AZD2811] + C[C@@H]1COCCN1C2=NC(=NC(=C2)C3(CC3)[S@](=N)(=O)C)C4=C5C=CNC5=NC=C4 [AZD6738] (first compound max 1 µM, 7x7, partner max 10 µM) | 0.655 | 0.632 | 1 | 0.44 | 0.261 | 0.562 | 0.894 | 0.808 | 0.493 | 0.568 | 0.266 | 0.58 | 0.912 | 0.551 | 0.331 | 0.816 | 0.975 | 0.717 | 0.822 | – |
| CCN(CCO)CCCOc1ccc2c(Nc3cc(CC(=O)Nc4cccc(F)c4)[nH]n3)ncnc2c1 [AZD2811] + O=C(c1cc(Cc2n[nH]c(=O)c3ccccc23)ccc1F)N1CCN(C(=O)C2CC2)CC1 [Olaparib] (first compound max 1 µM, 7x7, partner max 10 µM) | 0.534 | 0.386 | 0.817 | 0.375 | 0.159 | 0.216 | 0.949 | 0.558 | 0.236 | 0.287 | 0.241 | 0.224 | 0.564 | 0.367 | 0.289 | 0.289 | 0.961 | 0.359 | 0.273 | – |
| CN(CCO)CC[C@H](CSc1ccccc1)Nc1ccc(S(=O)(=O)NC(=O)c2ccc(N3CCC([C@@H](O)c4ccccc4-c4ccc(Cl)cc4)CC3)cc2)cc1S(=O)(=O)C(F)(F)F [AZD4320] + Cn1cnc2c(F)c(Nc3ccc(Br)cc3Cl)c(C(=O)NOCCO)cc21 [Selumetinib] (first compound max 1 µM, 7x7, partner max 3 µM) | 0.212 | 0.847 | 0.918 | 0.562 | 0.314 | 0.3 | 1 | 0.418 | 0.298 | 0.907 | 0.35 | 0.402 | – | 0.924 | 0.976 | 0.345 | 0.914 | 0.619 | 0.959 | 0.79 |
| C[C@@H]1COCCN1c1cc(C2([S@](C)(=N)=O)CC2)nc(-c2ccnc3[nH]ccc23)n1 [AZD6738] + O=C(c1cc(Cc2n[nH]c(=O)c3ccccc23)ccc1F)N1CCN(C(=O)C2CC2)CC1 [Olaparib] (first compound max 10 µM, 7x7, partner max 10 µM) | 0.717 | 0.67 | 1 | 0.369 | 0.32 | 0.678 | 0.942 | 0.791 | 0.498 | 0.611 | 0.263 | 0.573 | 0.908 | 0.529 | 0.312 | 0.821 | 0.72 | 0.665 | 0.92 | – |
| Cc1cc2ncnn2cc1Nc1ncc2c(n1)n(C1CCOCC1)c(=O)n2C [AZD7648] + O=C(c1cc(Cc2n[nH]c(=O)c3ccccc23)ccc1F)N1CCN(C(=O)C2CC2)CC1 [Olaparib] (first compound max 10 µM, 7x7, partner max 10 µM) | 0.468 | 0.221 | 0.639 | 0.152 | 0.147 | 0.323 | 0.918 | 0.585 | 0.199 | 0.07 | 0.158 | 0.29 | 0.22 | 0.281 | 0.24 | 0.158 | 0.246 | 0.415 | 0.307 | – |
| Cn1cnc2c(F)c(Nc3ccc(Br)cc3Cl)c(C(=O)NOCCO)cc21 [Selumetinib] + CCN(CCO)CCCOc1ccc2c(Nc3cc(CC(=O)Nc4cccc(F)c4)[nH]n3)ncnc2c1 [AZD2811] (first compound max 10 µM, 7x7, partner max 1 µM) | 0.416 | 0.266 | 0.476 | 0.633 | – | 0.158 | 0.695 | 0.306 | 0.277 | 0.133 | 0.318 | 0.191 | 0.788 | 0.334 | 0.863 | 0.328 | 0.989 | 0.554 | 0.127 | 0.785 |
| Cn1cnc2c(F)c(Nc3ccc(Br)cc3Cl)c(C(=O)NOCCO)cc21 [Selumetinib] + C[C@@H]1COCCN1C2=NC(=NC(=C2)C3(CC3)[S@](=N)(=O)C)C4=C5C=CNC5=NC=C4 [AZD6738] (first compound max 10 µM, 7x7, partner max 10 µM) | 0.549 | 0.472 | 0.988 | 0.51 | – | 0.587 | 0.855 | 0.672 | 0.413 | 0.373 | 0.445 | 0.468 | 0.975 | 0.496 | 0.922 | 0.801 | 0.723 | 0.732 | 0.762 | 0.732 |
